Results: a melting point compilation (Tetko et al.; mined from patent text by program, amines drawn as free bases though some values may be those of a salt)

Row | SMILES | melting point
1 | CCNS(=O)(=O)c1ccc(C2=C(c3ccccc3)C(=O)C(C)(C)O2)cc1Cl | 72 to 73 °C
2 | O=C1c2ccccc2-n2c1nc1ccc(Br)cc1c2=O | 315 to 316 °C
3 | O=C(CSCCN1C(=O)c2ccccc2C1=O)c1ccc(F)cc1 | 124 to 126 °C
4 | C#Cc1ccc(CO[C@@H]2COc3nc([N+](=O)[O-])cn3C2)nc1 | 135 to 136 °C
5 | CCCCc1nn2cccc(C(=O)OC)c2c1Cc1ccc(-c2ccccc2C#N)cc1 | 92 to 95 °C
6 | CN1C(=O)C(N)C(=O)N(C23CC4CC(CC(C4)C2)C3)c2ccccc21 (centres undefined) | 194 °C
7 | CCOC(=O)C(=CNC1CC1)C(=O)c1c(F)cc(Cl)c(F)c1Cl | 106 to 107 °C
8 | CCCCNC(=O)N1N=C(c2ccc([N+](=O)[O-])cc2)c2cc(Cl)ccc2CC1C (centres undefined) | 150 °C
9 | CS(=O)(=O)c1ccc(CN2CC3(COc4cc5c(cc43)OCO5)c3ccccc32)o1 (centres undefined) | 177 to 179 °C
10 | COC(=O)[C@H](CC(=O)c1ccc2oc3ccccc3c2c1)NC(=O)c1ccccc1 | 65 to 70 °C
11 | CCOC(=O)C(Cc1ccc(C(C)C)cc1)C(=O)N[C@@H](CC(C)C)C(=O)OC(C)(C)C (some centres undefined) | 68 to 73 °C
12 | Cc1cccc(-c2nc(CCOc3ccc(CCCC4OC(=O)NC4=O)cc3)c(C)o2)c1 (centres undefined) | 149 to 150 °C
13 | C=C(C)c1ccncc1-c1c(O)cc(C(C)C(C)CCCCC)cc1O (centres undefined) | 128 to 129 °C
14 | CCOC(=O)c1[nH]c2cccc(C)c2c1Sc1ccc(Cl)cc1 | 186 to 188 °C
15 | COC(=O)C1=C(C)NC(C(C)=O)=C(C(=O)OC)C1c1ccccc1Cl (centres undefined) | 161 to 162 °C
16 | CN1C(=O)N(C[C@H](C(=O)O)[C@@H](CC2CCCC2)C(=O)N2CCCCC2)C(=O)C1(C)C | 111 to 114 °C
17 | COc1cc(OC)c(NC(=O)[C@H]2[C@H](c3ccc(S(N)(=O)=O)cc3)C2(C)C)cc1Cl (relative stereo) | 248 to 251 °C
18 | Cc1cccc(NC(=O)NCC(=O)Nc2ccccc2C(=O)c2cccs2)c1 | 208 to 210 °C
19 | COc1cc2c(cc1N1CCN(CC3Cc4ccccc4C3)CC1)OCCO2 | 176 to 178 °C
20 | COc1ccc(C(=O)Cc2ccccc2)cc1 | 68 to 69 °C
21 | NC(Cc1c[nH]c2c(Cl)cccc12)C(=O)O (centres undefined) | 236 to 239 °C
22 | COc1cccc(Sc2ccnc(Nc3cccc(CCO)c3)n2)c1 | 122 to 124 °C
23 | Cc1ccccc1Oc1cccc(CC(=O)O)c1[N+](=O)[O-] | 158 to 160 °C
24 | O=S(Cc1ccccn1)c1nc2cc3c(cc2[nH]1)CCC3 (centres undefined) | 173 to 174 °C
25 | CNC(=O)C1CCN(S(=O)(=O)c2ccc(Cl)c(COc3cccc4c(-n5ccnc5)cc(C)nc34)c2Cl)C1 (centres undefined) | 108 °C
26 | c1ccc2c(Cn3ccnc3)noc2c1 | 52 to 55 °C

Row | SMILES | melting point
27 | NC(=O)Nc1nc(CC(=O)Nc2cccc(C(F)(F)F)c2)cs1 | 195 to 197 °C
28 | C=CCOc1ccc(Cl)c2c(=O)c3ccccc3sc12 | 135 to 136 °C
29 | CCOC(=O)Nc1nc(C(=NOC)C(=O)OCC)ns1 | 108 to 110 °C
30 | CNC(=S)C1(c2cccnc2)CCCS1 (centres undefined) | 133 °C
31 | CC1(C)Oc2ccc(OCc3ccccc3)cc2C(O)C1Br (centres undefined) | 126 to 128 °C
32 | COC(=O)c1cccc2c1Nc1cccc(I)c1C2 | 108 to 110 °C
33 | CC1(C)CCC(C)(C)c2cc(-c3cc(Br)cc(C(=O)O)c3)ccc21 | 165 °C
34 | CC(C)CCN1C(=O)C2(COc3cc4c(cc32)OCCO4)c2c1ccc1ncsc21 (centres undefined) | 169 to 171 °C
35 | Cc1c(Cl)sc2c1c(-c1ccccc1)nc(=O)n2C | 190 to 192 °C
36 | CSc1nc(Cl)c(-c2ccccc2)c(NN)n1 | 134 to 135 °C
37 | O=c1cc(Oc2cccc(OCc3ccccc3)c2)c2ccccc2[nH]1 | 262 to 265 °C
38 | O=Cc1ccc(OCc2ccccc2)c(O)c1 | 118 to 120 °C
39 | O=C1N(CC2CCCO2)c2c(Cl)cccc2C12COc1cc3c(cc12)CCO3 (centres undefined) | 192 to 193 °C
40 | CC1(C)CN(C(=O)Nc2cccnc2)c2cc(C#N)ccc21 | 220 to 222 °C
41 | C[C@@H](CO)Oc1cc(Oc2ccc(C(=O)N3CCC3)cc2)cc(C(=O)Nc2ccn(C)n2)c1 | 131 °C
42 | CCC1=Nc2c(C)nn(C)c2C2=NCCN12 | 148 to 150 °C
43 | CCOC(=O)/C=C/c1cc(C(F)(F)F)ccc1C(=O)NCC(F)(F)F | 162 °C
44 | N#CCOc1c(Br)cc(Br)cc1C=O | 125 to 130 °C
45 | N#Cc1nc2ccccc2[nH]1 | 268 °C
46 | CCCCCCCCc1c(CCC)nc2ncnn2c1N | 165 °C
47 | COc1ccc(-c2c(C(=O)c3ccccc3)c(CBr)nc3cc(OC)c(OC)cc23)cc1OC | 182 to 183 °C
48 | Nc1nc(Cl)cc(Oc2ccc3[nH]ccc3c2)n1 | 192 °C
49 | CCc1c(C#N)c(-c2ccc(C#N)cc2)c(C)n1Cc1cnc(Cl)c(COC(=O)CCC(=O)O)c1 | 187 to 188 °C
50 | Nc1nc(N)nc(-c2ccc(OCc3ccc(Cl)cc3)cc2)n1 | 246 to 248 °C
51 | CCCCNS(=O)(=O)c1ccc2nc3scc(C)n3c(=O)c2c1 | 165 to 167 °C
52 | COC(=O)c1ccc(N2CCSC2=N)c([N+](=O)[O-])c1 | 156 °C

Row | SMILES | melting point
53 | O=C1C(=O)N2CCOc3c(Cl)c(Cl)cc1c32 | 237 to 238 °C
54 | CCCCCCCCCCCCCCC1COC2(CC(c3ccccc3)N(O)C(c3ccccc3)C2)O1 (centres undefined) | 98 to 100 °C
55 | Clc1cnc(Sc2cccs2)nc1 | 65 °C
56 | Nc1cccc(Cc2n[nH]c(=O)c3ccccc23)c1 | 175 to 177 °C
57 | COC(=O)N1CCN2c3ccc(N4CC(CNC(C)=O)OC4=O)cc3OCC2C1 (centres undefined) | 185 to 190 °C
58 | CC1(C)COP(=O)(O)OC1c1cccc2ccccc12 (centres undefined) | 216 to 217 °C
59 | Cc1cc(C(=O)O)ccc1N1CCOCC1 | 220 to 221 °C
60 | CC(C(=O)C(N)=O)c1ccc(N2Cc3ccccc3C2=O)cc1 (centres undefined) | 220 to 222 °C
61 | Cc1ccc(CCC(C)NCC(O)c2cc3ccccc3o2)cc1 (centres undefined) | 83 to 84 °C
62 | CN(C)C1CCN(c2nc(N3CCOCC3)c3ncnc(NCCCc4ccccc4)c3n2)CC1 | 82 to 84 °C
63 | CCn1cc(C(=O)Cl)c(=O)c2ccc(Cl)nc21 | 186 to 188 °C
64 | CCN1CCOc2nc(Cl)c(Cl)nc21 | 108 to 110 °C
65 | COC(=O)c1ccc(/C=C\c2ccc(C(=O)OC)cc2Cl)cc1 | 134 to 135 °C
66 | CC(C)n1nc(-c2ccc(=O)[nH]c2-c2ccccc2)ccc1=O | 107 to 109 °C
67 | CCCCc1nc2c(C)nc(C)cc2n1-c1ccc(CCOC(=O)NS(=O)(=O)c2ccc(C)cc2)cc1 | 162 °C
68 | Cc1cnnc(-c2cccc(C(F)(F)F)c2)c1 | 114 to 116 °C
69 | Cc1c(Oc2c(F)cc(C(F)(F)F)cc2Cl)nn(C(=O)OC(C)(C)C)c1C | 138 to 139 °C
70 | CCCN(CCC)Cc1nnc(-c2ncn3c2[C@@H]2CCN2C(=O)c2c(Cl)cccc2-3)o1 | 134 to 136 °C
71 | CCCCCC(=O)CCC1C(=O)NC(=O)N1CCCCCCC(=O)O (centres undefined) | 84.5 to 86 °C
72 | COCc1cc(Cl)ncn1 | 34 to 36 °C
73 | O=C(Nc1nc(C(Cl)(Cl)Cl)ns1)C(F)(F)F | 116 °C
74 | COC1CCC(C2=C(Cl)C(=O)c3ccccc3C2=O)CC1 (centres undefined) | 110 to 113 °C
75 | Cn1c(=S)ccc2ccccc21 | 114 °C
76 | Cc1cc(C(O)(C(F)(F)F)C(F)(F)F)ccc1O | 89.5 to 90.5 °C
77 | Cc1c(C(=O)Nc2ccc(N3CCN(C4CCOCC4)CC3)c(C#N)c2)cnn1-c1ccc(Cl)cc1 | 276 °C
78 | CC(C)(C)c1cccc(C(C)(C)C)c1C(OC(N)=O)S(=O)(=O)NC(c1ccccc1)c1ccccc1 (centres undefined) | 175 to 178 °C

Row | SMILES | melting point
79 | Cc1ccc2cccc(OCc3c(Cl)ccc(C(=O)O)c3Cl)c2n1 | 267 to 270 °C
80 | CONC(=O)c1[nH]c(C)c(-c2nc3ccc(C(=O)c4ccccc4)cc3[nH]2)c1C | 203 to 205 °C
81 | COCOc1cccc(-c2ccc(-c3ccccc3)cc2-c2ccc3c(c2)C(C)(C)CCC3(C)C)c1C(=O)O | 103 to 104 °C
82 | Cc1noc(NS(=O)(=O)c2cccc(Cl)c2)c1Br | 132 to 134 °C
83 | CCOC(=O)CCCC1Sc2ccccc2NC1=O (centres undefined) | 78 to 79 °C
84 | C#CCSc1nc(Cl)cc(Cl)n1 | 67 to 70 °C
85 | COC(=O)Nc1nc2cnc3cccnc3c2n1CC(C)C | 195 to 197 °C
86 | O=C(O)c1cccc(N2C(=O)c3ccc(C(=O)O)cc3C2=O)c1 | > 380 °C
87 | CC(O)C#Cc1cc(Cl)cc2nc(-c3ccccc3Cl)oc12 (centres undefined) | 129 to 131 °C
88 | CCn1c(=O)c2c(nc(/C=C/c3ccc(OCC(=O)O)cc3)n2C)n(CC)c1=O | 268 to 269 °C
89 | CC(O)CCCCc1ccc(-c2ccccc2)cc1 (centres undefined) | 71 to 72 °C
90 | O=C(Nc1ccc(N2CCOCC2)cc1)Nc1ccc(C(F)(F)F)cc1 | 228 to 232 °C
91 | CC(C)(O)CNC(=O)c1ccc(-c2ccc(C(CC3CCOCC3)c3ccc(S(=O)(=O)C4CC4)cc3)[nH]2)nc1 (centres undefined) | 126 to 128 °C
92 | O=C(O)C1=CSC2C(=CC3=CN4CCCCCC4N3)C(=O)N12 (centres undefined) | > 250 °C
93 | NS(=O)(=O)c1cccc2nonc12 | 157 to 159 °C
94 | Cc1[nH]n(C2CCOC2)c2nc(-c3ccncc3)nc(=O)c1-2 (centres undefined) | 251 °C
95 | N#CCCc1ccnc(-c2nc(=O)c3ccccc3s2)c1 | 178 to 179 °C
96 | O=C1CC(CCc2ccccc2)Nc2ccccc2N1Cc1ccccc1 (centres undefined) | 135 to 137 °C
97 | CC1(c2ccccc2)Cc2cc(OCC#N)c(Cl)c(Cl)c2C1=O (centres undefined) | 163 to 165 °C
98 | CC(=O)N(c1nc2cc3nc(N(C(C)=O)N4CCN(C)CC4)sc3cc2s1)N1CCN(C)CC1 | 256 to 258 °C
99 | CN1CCC(Sc2[nH]nc(-c3ccc(Cl)cc3)c2-c2ccncc2)CC1 | 228 °C
100 | O=c1c2cccnc2c(-c2ccccc2)nn1-c1ccccc1 | 174 to 176 °C
101 | CCCNC(=O)N1C2=NC(C)(C)N(C)C(=O)N2c2ccccc21 | 85 to 87 °C
102 | O=C1NCCNC1Cc1ccccc1 (centres undefined) | 92 to 93 °C
103 | Cc1ccc2sc(=O)[nH]c2c1 | 86 to 88 °C
104 | CCOc1nn(-c2ccc(C(F)(F)F)cn2)cc1CCCOc1ccc(OC)cc1CC(=O)O | 138 to 139 °C
